Assay results taken from patent US20220402925A1, “COMPOUNDS AND METHODS FOR THE TREATMENT OF CYSTIC FIBROSIS” (Flatley Discovery Lab, LLC, priority 2019, published 2022).

Molecular target: T1, F508del CFTR (Homo sapiens, UniProt P13569, DEL508-508)
T1 construct: Primary CF airway epithelial cells were obtained from the UNC Cystic Fibrosis Tissue Procurement and Cell Culture Core; host or cells: primary CF airway epithelial cells
Assay: Equivalent current assay in primary CF airway epithelial cells (Corrector Activity, NAUC normalized to 3 μM VX809)
Assay type: cell-based
Conditions: NAUC as % of positive control (VX-809)
In short: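 Readout is NAUC: current area from forskolin/potentiator addition until CFTR-172, minus vehicle, relative to 3 μM VX809 (=1.0). Cells were primary CF epithelia at air-liquid interface ≥4 weeks, given basolateral compound for 24 h at 37° C; median of n≥4 replicates, sigmoid fit with nH fixed at 1.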

T1 sequence (P13569 with tags, fused parts or gaps DEL508-508): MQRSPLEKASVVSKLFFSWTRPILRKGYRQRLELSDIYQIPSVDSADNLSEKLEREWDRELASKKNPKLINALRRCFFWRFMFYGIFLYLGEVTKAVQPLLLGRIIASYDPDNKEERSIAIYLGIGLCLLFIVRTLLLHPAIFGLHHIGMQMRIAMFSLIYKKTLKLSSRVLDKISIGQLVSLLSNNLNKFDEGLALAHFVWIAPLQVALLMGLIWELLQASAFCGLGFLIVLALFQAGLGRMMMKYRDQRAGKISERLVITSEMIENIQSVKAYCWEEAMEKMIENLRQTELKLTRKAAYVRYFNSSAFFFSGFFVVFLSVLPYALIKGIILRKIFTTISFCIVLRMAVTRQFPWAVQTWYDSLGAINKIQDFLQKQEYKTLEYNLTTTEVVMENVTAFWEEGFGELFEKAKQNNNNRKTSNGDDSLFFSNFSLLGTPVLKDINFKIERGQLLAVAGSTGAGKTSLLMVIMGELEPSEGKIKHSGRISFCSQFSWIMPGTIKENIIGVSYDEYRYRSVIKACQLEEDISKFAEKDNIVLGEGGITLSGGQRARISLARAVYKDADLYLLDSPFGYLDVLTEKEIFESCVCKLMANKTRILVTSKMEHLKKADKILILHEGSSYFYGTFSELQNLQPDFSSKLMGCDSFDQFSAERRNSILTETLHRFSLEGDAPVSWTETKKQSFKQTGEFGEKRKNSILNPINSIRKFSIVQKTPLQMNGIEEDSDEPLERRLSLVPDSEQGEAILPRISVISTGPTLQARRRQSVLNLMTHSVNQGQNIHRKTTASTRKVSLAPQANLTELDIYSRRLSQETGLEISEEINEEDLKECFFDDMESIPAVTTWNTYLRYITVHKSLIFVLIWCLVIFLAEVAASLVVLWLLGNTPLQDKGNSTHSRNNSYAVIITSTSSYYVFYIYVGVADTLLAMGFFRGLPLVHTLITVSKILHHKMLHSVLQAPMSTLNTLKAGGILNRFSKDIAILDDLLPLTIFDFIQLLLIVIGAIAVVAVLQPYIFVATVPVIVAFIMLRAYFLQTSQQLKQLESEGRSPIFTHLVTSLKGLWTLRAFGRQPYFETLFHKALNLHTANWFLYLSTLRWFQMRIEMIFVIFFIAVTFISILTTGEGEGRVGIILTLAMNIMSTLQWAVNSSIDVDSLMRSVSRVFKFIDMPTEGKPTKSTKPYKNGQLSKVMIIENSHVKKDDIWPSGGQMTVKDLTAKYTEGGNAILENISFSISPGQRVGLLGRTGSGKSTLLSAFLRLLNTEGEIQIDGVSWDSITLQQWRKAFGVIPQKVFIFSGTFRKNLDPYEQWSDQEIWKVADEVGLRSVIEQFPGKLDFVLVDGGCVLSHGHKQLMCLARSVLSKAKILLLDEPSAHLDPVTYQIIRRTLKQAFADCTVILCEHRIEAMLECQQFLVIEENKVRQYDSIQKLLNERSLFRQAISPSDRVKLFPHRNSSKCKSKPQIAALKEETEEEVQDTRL

SMILES | Corr Activity (NAUC)
CN(C(=O)Cn1nc(-c2cccc(C(C)(C)C)c2)c2occc2c1=O)c1ccc2c(c1)OC(F)(F)O2 [Example 87] | + (NAUC<40% of positive control)
CCN(C(=O)Cn1nc(-c2cc(C#N)cc(OC)c2)c2oc(C3CCC3)cc2c1=O)c1ccc2c(c1)OC(F)(F)O2 [Example 239] | + (NAUC<40% of positive control)
O=C(Cn1nc(-c2cc(Cl)cc(N3CCCC3)c2)c2[nH]cnc2c1=O)N(c1ccc2c(c1)OC(F)(F)O2)C1CC1 [Example 400] | +++ (NAUC>70% of positive control)
Cc1cc2c(cc1N(C)C(=O)Cn1nc(-c3cccc(C#N)c3)c3occc3c1=O)OC(F)(F)O2 [Example 44] | +++ (NAUC>70% of positive control)
CCN(C(=O)Cn1nc(-c2cc(C)cc(OC)c2)c2[nH]cnc2c1=O)c1ccc2c(c1)OC(F)(F)O2 [Example 272] | + (NAUC<40% of positive control)
CCN(C(=O)Cn1nc(-c2cc(C#N)cc(OC(F)(F)F)c2)c2[nH]cnc2c1=O)c1ccc2c(c1)OC(F)(F)O2 [Example 285] | +++ (NAUC>70% of positive control)
N#Cc1cccc(-c2nn(CC(=O)N(c3ccc4c(c3)OC(F)(F)O4)C3CCOC3)c(=O)c3ccoc23)c1 (stereo not drawn) [Example 39] | +++ (NAUC>70% of positive control)
COc1cc(F)cc(-c2nn(CC(=O)N(c3ccc4c(c3)OC(F)(F)O4)C3CC3)c(=O)c3nc[nH]c23)c1 [Example 383] | ++ (NAUC 70-40% of positive control)
CCN(C(=O)Cn1nc(-c2cc(C)cc(C#N)c2)c2[nH]cnc2c1=O)c1ccc2c(c1)OC(F)(F)O2 [Example 246] | +++ (NAUC>70% of positive control)
COCCOc1cc(Cl)cc(-c2nn(CC(=O)N(c3ccc4c(c3)OC(F)(F)O4)C3CC3)c(=O)c3nc[nH]c23)c1 [Example 399] | ++ (NAUC 70-40% of positive control)
CCN(C(=O)Cn1nc(-c2ccc3ocnc3c2)c2[nH]cnc2c1=O)c1ccc2c(c1)OC(F)(F)O2 [Example 303] | + (NAUC<40% of positive control)
CN(C(=O)Cn1nc(-c2cccc(F)c2)c2occc2c1=O)c1ccc2c(c1F)OC(F)(F)O2 [Example 108] | +++ (NAUC>70% of positive control)
CCN(C(=O)Cn1nc(-c2ccc3ccccc3c2)c2[nH]cnc2c1=O)c1ccc2c(c1)OC(F)(F)O2 [Example 292] | + (NAUC<40% of positive control)
Cc1c(N(C)C(=O)Cn2nc(-c3cc(Cl)cc(C#N)c3)c3oc(C(=O)NC(C)(C)C)cc3c2=O)ccc2c1OC(F)(F)O2 [Example 141] | +++ (NAUC>70% of positive control)
Cc1nc2ccc(N(C)C(=O)Cn3nc(-c4cccc(F)c4)c4oc5ccccc5c4c3=O)cc2o1 [Example 157] | ++ (NAUC 70-40% of positive control)
CCN(C(=O)Cn1nc(-c2cccc(OC(C)(C)C)c2)c2oc(C(=O)NC(C)(C)C)cc2c1=O)c1ccc2c(c1)OC(F)(F)O2 [Example 122] | ++ (NAUC 70-40% of positive control)
COc1cc(OC)cc(-c2nn(CC(=O)N(c3ccc4c(c3)OC(F)(F)O4)C3CC3)c(=O)c3nc[nH]c23)c1 [Example 381] | + (NAUC<40% of positive control)
CCN(C(=O)Cn1nc(-c2cc(C)cc(C#N)c2)c2oc(C(=O)NC3(C(F)(F)F)CC3)cc2c1=O)c1ccc2c(c1)OC(F)(F)O2 [Example 152] | +++ (NAUC>70% of positive control)

SMILES | Corr Activity (NAUC)
CCN(C(=O)Cn1nc(-c2cc(C#N)cc(C(F)(F)F)c2)c2occc2c1=O)c1ccc2c(c1)OC(F)(F)O2 [Example 97] | + (NAUC<40% of positive control)
CCN(C(=O)Cn1nc(-c2ccc(C(F)(F)F)c(Cl)c2)c2[nH]cnc2c1=O)c1ccc2c(c1)OC(F)(F)O2 [Example 328] | + (NAUC<40% of positive control)
CCN(C(=O)Cn1nc(-c2ccc3c(c2)C(C)(C)c2ccccc2-3)c2[nH]cnc2c1=O)c1ccc2c(c1)OC(F)(F)O2 [Example 293] | + (NAUC<40% of positive control)
CCN(C(=O)Cn1nc(-c2ccc3c(ccn3C)c2)c2[nH]cnc2c1=O)c1ccc2c(c1)OC(F)(F)O2 [Example 290] | + (NAUC<40% of positive control)
O=C(Cn1nc(-c2cc(Cl)cc(OCc3ccccc3)c2)c2[nH]cnc2c1=O)N(c1ccc2c(c1)OC(F)(F)O2)C1CC1 [Example 396] | +++ (NAUC>70% of positive control)
CCN(C(=O)Cn1nc(-c2cc(F)cc(F)c2)c2oc(C3CC3)cc2c1=O)c1ccc2c(c1)OC(F)(F)O2 [Example 222] | +++ (NAUC>70% of positive control)
CCN(C(=O)Cn1nc(-c2ccc(CC#N)c(F)c2)c2[nH]cnc2c1=O)c1ccc2c(c1)OC(F)(F)O2 [Example 317] | + (NAUC<40% of positive control)
CCN(C(=O)Cn1nc(-c2cc(C)cc(C#N)c2)c2oc(C(=O)NC(C)(C)C(F)(F)F)cc2c1=O)c1ccc2c(c1)OC(F)(F)O2 [Example 150] | +++ (NAUC>70% of positive control)
Cc1cc(C#N)cc(-c2nn(CC(=O)N(C)c3ccc4c(c3)OC(F)(F)O4)c(=O)c3cc(C(=O)NC(C)(C)C)oc23)c1 [Example 132] | +++ (NAUC>70% of positive control)
CN(C(=O)Cn1nc(-c2cc(C#N)cc(C(F)F)c2)c2occc2c1=O)c1ccc2c(c1F)OC(F)(F)O2 [Example 101] | +++ (NAUC>70% of positive control)
CCN(C(=O)Cn1nc(-c2cccc(C#N)c2)c2oc(C(=O)N(C)C(C)(C)C)cc2c1=O)c1ccc2c(c1)OC(F)(F)O2 [Example 208] | +++ (NAUC>70% of positive control)
O=C(Cn1nc(-c2cc(F)cc(C(F)(F)F)c2)c2[nH]cnc2c1=O)N(c1ccc2c(c1)OC(F)(F)O2)C1CC1 [Example 391] | ++ (NAUC 70-40% of positive control)
CCN(C(=O)Cn1nc(-c2cccc(C#N)c2)c2oc(CN3CCCC3)cc2c1=O)c1ccc2c(c1)OC(F)(F)O2 [Example 203] | +++ (NAUC>70% of positive control)
CCN(C(=O)Cn1nc(-c2cccc(C#N)c2)c2oc(C(=O)NC(C)(C)C(F)(F)F)cc2c1=O)c1ccc2c(c1)OC(F)(F)O2 [Example 149] | +++ (NAUC>70% of positive control)
CCN(C(=O)Cn1nc(-c2cc(F)cc(C(F)(F)F)c2)c2[nH]cnc2c1=O)c1ccc2c(c1)OC(F)(F)O2 [Example 268] | ++ (NAUC 70-40% of positive control)
CCN(C(=O)Cn1nc(-c2cccc(OC(C)(C)C)c2)c2occc2c1=O)c1ccc2c(c1)OC(F)(F)O2 [Example 89] | ++ (NAUC 70-40% of positive control)
CCN(C(=O)Cn1nc(-c2cc(SC)cc(C(F)(F)F)c2)c2[nH]cnc2c1=O)c1ccc2c(c1)OC(F)(F)O2 [Example 271] | + (NAUC<40% of positive control)
CCN(C(=O)Cn1nc(-c2cccc(Cl)c2)c2oc(C(=O)NC(C)(C)C)cc2c1=O)c1ccc2c(c1)OC(F)(F)O2 [Example 120] | +++ (NAUC>70% of positive control)
